Measurements published in publication PMC8009478, “Novel Curcumin-Diethyl Fumarate Hybrid as a Dualistic GSK-3β Inhibitor/Nrf2 Inducer for the Treatment of Parkinson’s Disease” (ACS Chemical Neuroscience, 2020).
Where “and” joins values, the source holds several entries; their conditions need not be identical. Equal entries are not always repeated. Structures can show the parent of a compound that is named as a salt. Values belong to the compound of their own block, whether it stands above or below them.

How the values were obtained:
[1] = system: C. elegans BY250 [vtIs7 (Pdat-1:GFP)] CEP neurons; assay: 6-OHDA-induced neurodegeneration of CEP neurons in the C. elegans model of PD; assay type: in vivo, Caenorhabditis elegans; settings: 6-OHDA 5 mM alone for 30 min, scored after 72 h
From the text: The nematode Caenorhabditis elegans (C. elegans) has been increasingly employed as a genetically tractable in vivo model to study the molecular mechanisms involved in several NDDs due to a short life cycle, fast reproduction, and a highly conserved inheritance (genetic basis).[35] This invertebrate model offers the opportunity to take advantage of the significant conservation of genes and metabolic pathways common to both invertebrates and humans. At the neuronal level, the adult wild-type C. elegans organism contains only eight DA neurons that repeat the features of DA neurons of mammalian, making it possible to simplify the investigations considerably. In the transgenic BY250 [vtIs7 (Pdat-1:GFP)] strain, six DA neurons in the head, namely the four sensory cephalic (CEP) and the two anterior deirid (ADE) neurons, express the green fluorescent protein (GFP) and can be clearly visualized by fluorescence microscopy analysis and thus scored over time.[36] Indeed, in this model, investigations of DA neurons degeneration in vivo are feasible through a first exposition of the nematode to PD-inducing toxin, namely 6-OHDA, followed by direct visualization of the GFP-labeled DA neurons.[37] It is thus possible to screen small molecules for their anti-PD potential, in terms of rescue of the DA neurodegeneration phenotype manifested upon neurotoxin exposure, through visualization and scoring of the alterations of CEP neuron count or neuronal morphology. […] This effect makes it possible the identification of neuroprotective agents with the ability to activate Nrf2 through the inhibition of GSK-3.[38] The curcumin-DEF hybrids 4 and 5 were investigated in the above C. elegans model for their protective effects on 6-OHDA-induced degeneration of a subclass of DA neurons. Animals were incubated with 5 μM concentration of 4 and 5, in the presence of 5 mM of 6-OHDA, for 30 min. After 72 h, the animals were studied by examining the four CEP neurons. Degenerating CEP neurons were morphologically analyzed and quantified (Figure 8). We recorded that in animals treated with 6-OHDA, 68% of CEP neurons degenerated.
Figure 8 Effects of 4 and 5 on 6-OHDA-induced neurodegeneration in C. elegans. Animals were treated with 4 or 5 (5 μM) in the presence of 6-OHDA (5 mM) for 30 min. At the end of incubation, treated animals were placed on fresh agar plates for 72 h and then visualized as described in the Materials and Methods section. (A) In nontreated vtIs7 [pdat-1::GFP] transgenic animals, dopaminergic neurons express GFP, with two of the four CEP cell bodies (white arrows) and relative dendrites (arrowheads) visible in this focal plane in the head. (B) 6-OHDA treatment causes the degeneration of CEP dendrites (empty arrowheads) and two cell bodies (gray arrows), in treated animals. The other two CEP neurons are not visible anymore. (C) Compound 5 cotreatment partially rescues the 6-OHDA-induced toxic effects, with degeneration of one of the CEP dendrites (empty arrowhead) but not the other (arrowhead) and with one CEP cell body still viable (white arrow) and one dying (gray arrow) in this focal plane. […] ADE neurons, which are less affected by 6-OHDA treatment, are also visible but were not scored (asterisks). (D) Quantification of degenerating CEP neurons. Data are expressed as percentages of degenerating neurons and reported as mean ± SEM of at least three independent experiments. […]

PAMPA-BBB assay = settings: for Papp at 2.5 h: pig, PAMPA, pH 7.4; for prediction (penetration in the CNS): from PAMPA-BBB Pe
GSK-3β [2] = system: GSK-3β; set-up: method as in PMID 28597702; settings: previously identified GSK-3β inhibitors; ref 21b; cited from earlier work
GSK-3β [3] = target: T1, GSK-3β (Homo sapiens, UniProt P49841); assay: Kinetic study of GSK-3β inhibition, competition with ATP (ADP-Glo Kinase Assay); assay type: biochemical; settings: ATP 1 to 50 μM; inhibitors 5 and 10 μM; substrate 25 μM; double reciprocal plot
Protocol: Figure 2 Kinetic data for the curcumin-DEF hybrids 5 and 6. In the reaction mixture, the concentration of compounds employed is reported in the plot, the concentration of the substrate is constant (25 μM), and the concentration of ATP changes from 1 to 50 μM. Each point is the mean of two different experiments analyzed in triplicate.
Kinetic experiments were performed using the ADP-Glo Kinase Assay,[42] in which ATP concentration varied from 1 to 50 μM, the concentrations of inhibitors employed were 5 and 10 μM, while the concentration of GS2 was kept constant (25 μM). Graphs (Figure 2) report the double reciprocal plot of the data.

GSK-3β [4] = target: T1, GSK-3β; assay: GSK-3β inhibition, luminescent kinase assay (Kinase-Glo); settings: for IC50: GSK-3β inhibition IC50 (μM) ± SEM, human recombinant enzyme, luminescence method
Protocol: A kinetic study was performed in which the concentrations of both ATP and tested compounds were varied, while the concentration of the substrate was kept constant.
GSK-3β inhibition . Kinase-Glo assays (Promega Biotech Iberica, SL) were performed in assay buffer using
black 96-well plates. In a typical assay, 10 µl (10 µM) of test compound (dissolved in DMSO at 1 mM concentration and diluted in advance in assa y buffer to the desired concentration) and 10 µL (20 ng) of
enzyme were added to each well followed by 20 µl of assay buffer containing 50 µM substrate and 2 µM ATP.
After 30 -min incu bation at 30 °C
the enzymatic reaction was stopped with 40 µL of Kinase -Glo reagent. Glow -type luminescence was recorded
after 10 min using a FLUOstar Optima (BMG Labtechnologies GmbH, Offenburg Germany) multimode reader.
The activity is proportional to th e difference in the total and consumed ATP. The inhibitory activities were
calculated on the basis of maximal activities measured in the absence of inhibitor. The IC 50 was defined as the concentration of each compound that reduces a 50 % the enzymatic activity with respect to that without
inhibitors. Five different concentrations by duplicate were used to determine the dose/response curve.

SH-SY5Y cells [5] = assay: t-BuOOH-induced intracellular ROS formation (H2DCF-DA probe); assay type: cell-based, human; settings: then t-BuOOH 100 μM for 30 min
From the text: Oxidative stress represents a remarkable pathological feature in NDDs; it is the consequence of an imbalance between the formation of reactive radical species, among others ROS, and the function of many defense antioxidant enzymes. Initially, the potential of compounds 4–7 as indirect antioxidants was investigated[31] by assessing their capability to protect from oxidative stress through prevention of ROS formation upon exposure to tert-butyl hydroperoxide (t-BuOOH). In detail, SH-SY5Y cells were first chronically treated for 24 h (the time necessary to activate the endogenous antioxidant system) with 4–7 (5 μM) and then exposed to 100 μM of t-BuOOH for 30 min; DMF (5 and 10 μM) was employed as the reference compound. Then, the intracellular ROS formation was detected by fluorescent probe 2′-7′-dichlorodihydrofluorescein diacetate (H2DCF-DA).
Figure 3 Antioxidant activity of compounds 4–7 and DMF against t-BuOOH-induced ROS formation in SH-SY5Y cells. Cells were treated with compounds 4–7 (5 μM) and DMF (5 and 10 μM) for 24 h and then with t-BuOOH (100 μM) for 30 min. At the end of treatment, the ROS formation was evaluated by probe H2DCF-DA. Results are expressed as mean ± SEM of at least three independent experiments (* p < 0.05 and ** p < 0.01 vs cells treated with t-BuOOH at one-way ANOVA with the Dunnett post hoc test).
ROS formation was evaluated by using the fluorescent probe H2DCF-DA, as previously described.[43]

[6] = Chemical stability study by RP-HPLC; assay type: physicochemical; settings: DMSO 0.50 mg/mL, pH 7.4 with 50 mM phosphate, 70 °C, 24 h
Protocol: Conscious of the liabilities that might affect the newly synthesized curcumin-fumarate hybrids involving both the curcumin scaffold and the ester function, the chemical stability of the ester-based 6 and its carboxylic-acid counterpart 7 was studied by RP-HPLC.[21b]
The tested derivatives 6 and 7 were dissolved in DMSO (0.50 mg/mL), and the pH of the solution was adjusted to 7.4 using 50 mM phosphate. The obtained solutions were then maintained at 70 °C (oven) for 24 h and analyzed by RP-HPLC under the conditions reported in the General Procedures section.

SH-SY5Y cells [7] = assay: Intracellular GSH levels (MCB probe); assay type: cell-based, human; settings: DMF at 5 and 10 μM, 24 h
Protocol: By observing the reduction of ROS levels following a long treatment of the curcumin-DEF hybrids before the treatment with t-BuOOH, we hypothesized that the antioxidant effect might likely result from an increase in levels of GSH. This endogenous antioxidant plays critical roles in protecting cells against oxidative stress damage.[32] Thus, the intracellular GSH levels were analyzed by employing the same experimental conditions used to evaluate the indirect antioxidant effect by fluorescent probe monochlorobimane (MCB). […] For the most promising compounds 4 and 5, the effect on GSH levels at different times (3–24 h) was studied.
Figure 4 Effects of compounds 4–7 and DMF on GSH levels in SH-SY5Y cells. Cells were treated with (A) compounds 4–7 (5 μM) and DMF (5 and 10 μM) for 24 h. (B) Cells were treated with compounds 4 and 5 (5 μM) for different times (3, 6, 12, and 24 h). At the end of the treatment, the GSH levels were evaluated by probe MCB. Results are expressed as mean ± SEM of at least three independent experiments (** p < 0.01 and *** p < 0.001 vs untreated cells at one-way ANOVA with the Dunnett post hoc test).
GSH levels were evaluated by using the fluorescent probe MCB, as previously described.[44]

[8] = pig, PAMPA, 2.5 h, pH 7.4
in vitro = settings: pig, PAMPA, pH 7.4
[9] = set-up: method as in earlier work; settings: literature values of commercial drugs; ref 1 (Di et al., 2003); cited from earlier work

T1 sequence (P49841 whole entry): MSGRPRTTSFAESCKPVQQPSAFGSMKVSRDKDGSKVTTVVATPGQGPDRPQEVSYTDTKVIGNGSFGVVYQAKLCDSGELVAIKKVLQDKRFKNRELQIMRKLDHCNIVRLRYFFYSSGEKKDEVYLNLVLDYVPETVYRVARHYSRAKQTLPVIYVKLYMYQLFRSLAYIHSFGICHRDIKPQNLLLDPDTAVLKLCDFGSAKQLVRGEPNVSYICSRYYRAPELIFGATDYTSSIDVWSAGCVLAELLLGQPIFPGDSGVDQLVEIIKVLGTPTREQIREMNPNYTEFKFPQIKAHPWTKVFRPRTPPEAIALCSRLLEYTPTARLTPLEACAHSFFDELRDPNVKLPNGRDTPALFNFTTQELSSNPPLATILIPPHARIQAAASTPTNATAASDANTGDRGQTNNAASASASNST

Compound: NCCc1cc(O)c(O)cc1O [6-OHDA, 6-hydroxydopamine, reference compound]
degenerating CEP neurons [1]: 68%

Compound: Cn1c(=O)c2c(ncn2C)n(C)c1=O [Caffeine, reference compound]
Papp at 2.5 h (PAMPA-BBB assay): 0.5 ×10⁻⁶ cm/s

Compound: COc1ccc(/C=C/C(=O)/C=C(O)/C=C/c2ccc(OC)cc2)cc1 [Compound 1]
IC50 (GSK-3β [2]): 530 nM

Compound: COc1ccc(/C=C/C(O)=C/C(=O)/C=C/c2ccc(OCc3ccccc3)cc2)cc1 [Compound 2]
IC50 (GSK-3β [2]): 2780 nM

Compound: O=C(/C=C(O)/C=C/c1ccc(OCc2ccccc2)cc1)/C=C/c1ccc(OCc2ccccc2)cc1 [Compound 3]
IC50 (GSK-3β [2]): 2490 nM

mechanism of inhibition as regards competition with ATP (GSK-3β [3]): noncompetitive inhibitors of ATP binding | IC50 (GSK-3β [4]): 6.1 µM and 6.09 µM | Papp at 2.5 h (PAMPA-BBB assay): 4.5 ± 0.6 ×10⁻⁶ cm/s | chemical stability [6]: stable | melting point: 153 to 155 °C
Compound: CCOC(=O)/C=C/C(C(=O)/C=C/c1ccc(OCc2ccccc2)cc1)=C(O)\C=C\c1ccc(OCc2ccccc2)cc1 [Compound 6, Ethyl (2E,4Z,6E)-7-(4-(Benzyloxy)phenyl)-4-((E)-3-(4-(benzyloxy)phenyl)acryloyl)-5-hydroxyhepta-2,4,6-trienoate]
prediction (penetration in the CNS) (PAMPA-BBB assay): CNS + (compounds showing a Pe value superior to 2.26 × 10^–6 cm s^–1 could be regarded as able to permeate the brain compartment and thus classified as (CNS +)) | t-BuOOH-induced intracellular ROS formation (SH-SY5Y cells [5]; 5 μM for 24 h): not

IC50 (GSK-3β [4]): > 10 µM | inhibition at 10 µM (GSK-3β [4]; read-out: GSK-3β inhibition, inhibition (%)): 46% | prediction (penetration in the CNS) (PAMPA-BBB assay): CNS +/CNS – | Papp at 2.5 h (PAMPA-BBB assay): 1.7 ± 1 ×10⁻⁶ cm/s | melting point: 182 to 184 °C
Compound: O=C(O)/C=C/C(C(=O)/C=C/c1ccc(OCc2ccccc2)cc1)=C(O)\C=C\c1ccc(OCc2ccccc2)cc1 [Compound 7, (2E,4Z,6E)-7-(4-(Benzyloxy)phenyl)-4-((E)-3-(4-(benzyloxy)phenyl)acryloyl)-5-hydroxyhepta-2,4,6-trienoic Acid]
t-BuOOH-induced intracellular ROS formation (SH-SY5Y cells [5]; 5 μM for 24 h): not | chemical stability [6]: formation of a degradation product was observed

Compound: COC(=O)/C=C/C(=O)OC [DMF, dimethyl fumarate, reference compound]
t-BuOOH-induced intracellular ROS formation (SH-SY5Y cells [5]; DMF 5 and 10 μM for 24 h): significant reduction | increase in GSH levels (SH-SY5Y cells [7]): 2–3 fold

Pe (10-6 cm s-1) [8]: 8,7 10-6 cm s-1
Compound: CNCCCN1c2ccccc2CCc2ccccc21 [Desipramine]

Papp at 2.5 h (in vitro): 0.5 ×10⁻⁶ cm/s
Compound: CCn1cc(C(=O)O)c(=O)c2cc(F)c(N3CCNCC3)nc21 [Enoxacin]

Papp at 2.5 h (PAMPA-BBB assay): 0.4 ×10⁻⁶ cm/s
Compound: CN1C(C(=O)Nc2ccccn2)=C(O)c2ccccc2S1(=O)=O [Piroxicam, reference compound]
Bibl. Pe [9]: 2.5 10-6 cm s-1

Papp at 2.5 h (PAMPA-BBB assay): 5.9 ×10⁻⁶ cm/s
Compound: CN(C)CCCN1c2ccccc2Sc2ccccc21 [Promazine, reference compound]
Bibl. Pe [9]: 8.8 10-6 cm s-1
